Results taken from US20230192660A1 (priority 2020, published 2023).

These compounds were tested against SARS-CoV-2 Mpro C145A mutant (Severe acute respiratory syndrome coronavirus 2, UniProt P0DTD1, C3408A).
Format: binding

`CC1(C)[C@@H]2[C@@H](C(=O)N[C@@H](C[C@@H]3CCNC3=O)C(=O)C(N)=O)N(C(=O)CCc3ccccc3)C[C@@H]21` [ML102] and `CNC(=O)C(=O)[C@H](C[C@@H]1CCNC1=O)NC(=O)[C@@H]1[C@@H]2[C@H](CN1C(=O)CCc1ccccc1)C2(C)C` [ML102m] are the same in “ΔTm Mpro C145A” value: 0 °C for the first, 0 °C for the second.

`CC1(C)[C@@H]2[C@@H](C(=O)NC(C[C@@H]3CCNC3=O)C(=O)C(N)=O)N(C(=O)CNc3c(F)cc(F)cc3F)C[C@@H]21` (stereo partly shown) [ML104] and `CNC(=O)C(=O)[C@H](C[C@@H]1CCNC1=O)NC(=O)[C@@H]1[C@@H]2[C@H](CN1C(=O)CNc1c(F)cc(F)cc1F)C2(C)C` [ML104m] are the same in “ΔTm Mpro C145A” value: 0 °C for the first, 0 °C for the second.

Going from `COc1cccc2[nH]c(C(=O)N3C[C@H]4[C@@H]([C@H]3C(=O)N[C@@H](C[C@@H]3CCNC3=O)C(=O)C(N)=O)C4(C)C)cc12` [ML105] to `CC(C)(C)[C@H](NC(=O)C12CC(C1)C2)C(=O)N1C[C@H]2[C@@H]([C@H]1C(=O)N[C@@H](C[C@@H]1CCNC1=O)C(=O)C(N)=O)C2(C)C` [ML1002], the “ΔTm Mpro C145A” value rises from 0 °C to 0.1 °C.

With `CNC(=O)C(=O)[C@H](C[C@@H]1CCNC1=O)NC(=O)[C@@H]1[C@@H]2[C@H](CN1C(=O)[C@@H](NC(=O)C13CC(C1)C3)C(C)(C)C)C2(C)C` [ML1002m] the “ΔTm Mpro C145A” value was 0.1 °C.
